From the NIST ThermoML archive (doi:10.1016/j.jct.2008.02.003) come the findings set out here.

± gives the expanded uncertainty stated by the source.

A short description of series [1]: Molar enthalpy of transition or fusion. As to conditions: Crystal; DSC.
The conditions of series [2]: Crystal; DTA.
The nature of series [3]: molar enthalpy of vaporization or sublimation. As to conditions: 298.15 K, Calvet microcalorimetry.

For the compound `COc1cccc(Cl)c1Cl` [1,2-dichloro-3-methoxybenzene], the “Molar enthalpy of transition or fusion” value in series [1] turned out to be 5.27 ± 0.12 kcal/mol. In series [2], the Normal melting temperature was determined as 30.99 ± 0.39 °C. Moreover, the molar enthalpy in series [3] (Crystal) was found to be 20 ± 0.717 kcal/mol.
Take `COc1ccc(Cl)cc1Cl` [2,4-dichloro-1-methoxybenzene]: the molar enthalpy in series [3] (Liquid) worked out at 15 ± 0.335 kcal/mol.
In the case of `COc1c(Cl)cccc1Cl` [2,6-dichloroanisole], in series [3] (Liquid), the molar enthalpy was 13.4 ± 0.335 kcal/mol.
Turning to `COc1cc(Cl)cc(Cl)c1` [3,5-dichloroanisole], in series [1], the “Molar enthalpy of transition or fusion” value is 5.66 ± 0.148 kcal/mol. For the same compound, the Normal melting temperature in series [2] turned out to be 37.37 ± 0.39 °C. In addition, the molar enthalpy in series [3] (Crystal) is 18.9 ± 0.717 kcal/mol.
